This note sets out measurements from paper PMC11277439, “The role of lysosomal phospholipase A2 in the catabolism of bis(monoacylglycerol)phosphate and association with phospholipidosis” (Journal of Lipid Research, 2024).

For the assay, the target named is T1, recombinant human LPLA2 (hLPLA2) (Homo sapiens, UniProt Q8NCC3).
T1 construct: gene PLA2G15; recombinant human enzyme from Proteos
T1 sequence (Q8NCC3 34-412): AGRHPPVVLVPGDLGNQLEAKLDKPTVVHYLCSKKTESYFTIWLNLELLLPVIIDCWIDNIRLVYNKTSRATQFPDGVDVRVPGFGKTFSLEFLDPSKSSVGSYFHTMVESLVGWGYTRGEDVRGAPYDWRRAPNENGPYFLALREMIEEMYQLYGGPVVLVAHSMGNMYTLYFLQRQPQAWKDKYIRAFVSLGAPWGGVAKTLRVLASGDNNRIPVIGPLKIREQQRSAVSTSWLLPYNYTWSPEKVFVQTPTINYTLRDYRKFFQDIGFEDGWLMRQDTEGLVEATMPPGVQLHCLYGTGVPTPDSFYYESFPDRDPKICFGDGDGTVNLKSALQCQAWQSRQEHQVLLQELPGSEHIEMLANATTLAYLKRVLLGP
Put plainly: oleic acid release from liposomes, HPTLC. The assay is classed as biochemical. The conditions noted are these: DODPC/S,S-(3,3′,C18:1)-BMP liposomes (2.3:1), 50 mM sodium acetate pH 4.5, 37°C, 5 min pre-incubation of drug with liposomes; read-out: Lipase Inhibition IC50 μM (BMP)^g. The source says:
oleic acid release from liposomes, HPTLC on recombinant human LPLA2 (hLPLA2)

Molecules are shown by their SMILES.

Usually IC50 stands for the concentration at which inhibition is half-maximal. Consider `NCC[C@H](Oc1ccc(C(F)(F)F)cc1)c1ccccc1` [seproxitine, (3S)-3-phenyl-3-[4-(trifluoromethyl)phenoxy]propan-1-amine], for which the IC50 turned out to be 20.9 µM.

With `CN(CCCN1c2ccccc2CCc2ccccc21)CC(=O)c1ccc(Cl)cc1` [lofrepramine, 1-(4-chlorophenyl)-2-[3-(5,6-dihydrobenzo[b][1]benzazepin-11-yl)propyl-methylamino]ethanone], the IC50 is 41.7 µM.

Consider `C[C@]12CC[C@@H]3c4ccc(O)cc4C[C@@H](CCCCCCCCC[S+]([O-])CCCC(F)(F)C(F)(F)F)[C@H]3[C@@H]1CC[C@@H]2O` (stereo partly drawn) [fulvestrant, (7R,8R,9S,13S,14S,17S)-13-methyl-7-[9-(4,4,5,5,5-pentafluoropentylsulfinyl)nonyl]-6,7,8,9,11,12,14,15,16,17-decahydrocyclopenta[a]phenanthrene-3,17-diol], for which the IC50 was 18.5 µM.

Take `C1CCC(C(CC2CCCCN2)C2CCCCC2)CC1` (stereo not drawn) [perhexiline, 2-(2,2-dicyclohexylethyl) piperidine]: the IC50 is 31.1 µM.

Turning to `CC/C(=C(\c1ccccc1)c1ccc(OCCN(C)C)cc1)c1ccccc1` [tamoxifen], the IC50 turned out to be 20.1 µM.

As to `CCOC(=O)C1=C(COCCN)NC(C)=C(C(=O)OC)C1c1ccccc1Cl` (stereo not drawn) [amlodipine, 3-O-ethyl 5-O-methyl 2-(2-aminoethoxymethyl)-4-(2-chlorophenyl)-6-methyl-1,4-dihydropyridine-3,5-dicarboxylate], the IC50 came to 24 µM.

With `O=C(c1ccc(OCCN2CCCCC2)cc1)c1c(-c2ccc(O)cc2)sc2cc(O)ccc12` [raloxifene, [6-hydroxy-2-(4-hydroxyphenyl)-1-benzothiophen-3-yl]-[4-(2-piperidin-1-ylethoxy)phenyl]methanone], the IC50 is 50.6 µM.

Consider `CC(C)NCC(O)COc1cccc2ccccc12` (stereo not drawn) [propranolol, 1-(naphthalen-1-yloxy)-3-[(propan-2-yl)amino] propan-2-ol], for which the IC50 is 45.8 µM.

For `CC[C@H](NC(=O)c1c(C)c(-c2ccccc2)nc2ccccc12)c1ccccc1` [SB222200, 3-methyl-2-phenyl-N-[(1S)-1-phenylpropyl]quinoline-4-carboxamide], the IC50 stood at 28.7 µM.

In the case of `CC(C)(C)c1ccc(CN2CCN(C(c3ccccc3)c3ccc(Cl)cc3)CC2)cc1` (stereo not drawn) [buclizine, 1-[(4-tert-butylphenyl)methyl]-4-[(4-chlorophenyl)-phenylmethyl]piperazine], the IC50 is 16 µM.

With `CCC(=O)O[C@@H](O[P@](=O)(CCCCc1ccccc1)CC(=O)N1C[C@H](C2CCCCC2)C[C@H]1C(=O)O)C(C)C` [fosinopril, (2S,4S)-4-cyclohexyl-1-[2-[(2-methyl-1-propanoyloxypropoxy)-(4-phenylbutyl)phosphoryl]acetyl]pyrrolidine-2-carboxylic acid], the IC50 came out at 0.849 µM.

With `CN(C)CCC=C1c2ccccc2C=Cc2ccccc21` [cyclobenzaprine, N,N-dimethyl-3-(2-tricyclo[9.4.0.03,8]pentadeca-1(15),3,5,7,9,11,13-heptaenylidene)propan-1-amine], the IC50 is 13.2 µM.

For `COc1ccccc1OCCNCC(O)COc1cccc2[nH]c3ccccc3c12` (stereo not drawn) [carvedilol, 1-(9H-carbazol-4-yloxy)-3-[2-(2-methoxyphenoxy)ethylamino]propan-2-ol], the IC50 worked out at 34.7 µM.

As to `O=C(O)[C@@H]1C[C@@H](C2CCCCC2)CN1C(=O)CP(=O)(O)CCCCc1ccccc1` [fosinoprilat, (2S,4S)-4-cyclohexyl-1-{2-[hydroxy(4-phenylbutyl)phosphoryl]acetyl}pyrrolidine-2-carboxylic acid], the IC50 is 39.9 µM.

As to `CCN(CC)C(C)CN1c2ccccc2Sc2ccccc21` (stereo not drawn) [profenamine, N,N-diethyl-1-phenothiazin-10-ylpropan-2-amine], the IC50 is 40.9 µM.

On to `CCCCc1oc2ccccc2c1C(=O)c1cc(I)c(OCCN(CC)CC)c(I)c1` [amiodarone, (2-butyl-1-benzofuran-3-yl)-[4-[2-(diethylamino)ethoxy]-3,5-diiodophenyl]methanone], for which the IC50 was determined as 18 µM.

On to `CCOC(=O)N1CCC(=C2c3ccc(Cl)cc3CCc3cccnc32)CC1` [loratadine, ethyl 4-{13-chloro-4-azatricyclo [9.4.0.03, 8]pentadeca1(11),3(8), 4,6,12,14-hexaen-2-ylidene}piperidine-1-carboxylate], for which the IC50 is 21.8 µM.

In the case of `CN(C)CCCN1c2ccccc2Sc2ccc(Cl)cc21` [chlorpromazine, 3-(2-chlorophenothiazin-10-yl)-N,N-dimethylpropan-1-amine], the IC50 was 9.7 µM.
